Assay results taken from patent publication US20140100286A1, “COMPOSITION FOR PREVENTING OR TREATING INFLAMMATORY DISEASES COMPRISING VERATRIC ACID AS EFFECTIVE COMPONENT” (Pukyong National University Industry-University Cooperation …, priority 2012, published 2014).

Legend:
Assay type in all cases: cell-based, murine
cyclooxygenase-2 (COX-2) = experiment: COX-2 gene and protein expression, RT-PCR and Western blot; conditions: LPS-stimulated RAW264.7 cells
ERK1/2 = experiment: Phosphorylation of ERK1/2, Western blot; conditions: LPS-stimulated macrophage cells, Western blot (FIG. 9)
Experimental: (§1) The prepared murine macrophage cells treated with the LPS in combination with the veratric acid were collected and lysed by using a lysis buffer {50 mM Tris-Cl [pH7.5], 150 mM NaCl, 1 mM DTT, 0.5% NP-40, 1% Triton X-100, 1% deoxycholate, 0.1% SDS and a cocktail of proteinase inhibitors [1 mM PMSF, 1 mM EDTA, 11 μM aprotinin, 11 μM leupeptin, and 11 μM pepstatin A (Intron Biotechnology, Gyeonggi, Korea)]}. Protein samples were electrophoresed by 12% SDS-PAGE and then electrically transferred to a nitrocellulose membrane. Thereafter, the protein samples were allowed to react with primary antibodies capable of recognizing the iNOS. After the membrane was washed and then allowed to react with horseradish peroxidase-linked anti-rabbit IgG or anti-rabbit IgG (Cell Signaling Technology Inc., USA). Then, signals were checked by using an enhanced chemiluminescent (ECL) detection system (Pierce, USA).
(§2) Protein expression levels of JNK, p38, and ERK1/2 in the LPS-stimulated macrophage cells were checked through a Western blot analysis performed in the same manner as Example 3 in order to confirm whether or not the veratric acid affected an activity of MAPK as a superordinate signaling system that produced pro-inflammatory cytokines.

[1] = system: inducible nitric oxide synthase (iNOS); experiment: iNOS gene and protein expression, RT-PCR and Western blot; conditions: LPS-stimulated RAW264.7 cells, concentration dependent (FIG. 4)
Experimental: Thus, the present inventors performed an RT-PCR and a Western blot analysis as follows in order to confirm whether or not the veratric acid's mechanism of inhibiting nitric oxide production was operated by regulating expression and protein activity of iNOS as an inducible nitric oxide synthase involved in nitric oxide production.
The prepared murine macrophage RAW264.7 cells treated with the LPS in combination with the veratric acid were used. RNA was extracted and separated from the incubated cells by using 2-mercaptoethanol (Sigma, USA). An RT-PCR was performed by using primers listed in Table 1 with the extracted RNA as a template. Then, after electrophoresis, an expression level of a gene was checked with ultraviolet light.
as §1, with “After the membrane was washed and then allowed to react with horseradish peroxidase-linked anti-rabbit IgG or anti-rabbit IgG (Cell Signaling Technology Inc., USA). Then, signals were checked by using an enhanced chemiluminescent (ECL) detection system (Pierce, USA).” left out

[2] = system: nitric oxide production in macrophage RAW264.7 cells; experiment: Nitric oxide (NO) production, Griess reagent; conditions: LPS 100 ng/ml in combination with veratric acid 50-200 μM, inhibition in proportion to concentration (FIG. 3B)
Experimental: In order to confirm whether or not the veratric acid has an activity of inhibiting production of nitric oxide that causes inflammation, the following experiment was performed. The prepared macrophage RAW264.7 cells were seeded in a 96-well plate at 1×10^5 cells/well. Each of the cells was treated at different concentrations (0, 50, 100, 150 and 200 μM) of the veratric acid and incubated for 3 hours. The cells were incubated in a culture medium containing 100 ng/ml LPS for 24 hours. Thereafter, a culture solution was acquired. After the culture solution was allowed to react with a Griess reagent, a production level of nitric oxide induced by the LPS was measured at 540 nm by using the ELIZA analyzer (BD PharMingen, USA).

NF-κB [3] = experiment: Phosphorylation of NF-κB, Western blot; conditions: LPS-stimulated macrophage cells, reduction in proportion to concentration (FIGS. 8A, 8B)
Experimental: as §1
(§3) An NF-κB is a transcription factor and when the NF-κB is activated by phosphorylated IκBα, it is moved into a nucleus and bound to a promoter site such that target molecules can be transcribed. Thus, the present inventors performed a Western blot analysis and an immunofluorescent microscopy as follows in order to confirm whether or not the veratric acid affected protein levels of the NF-κB and the IκBα. […]

p38 = experiment: Phosphorylation of p38, Western blot; conditions: LPS-stimulated macrophage cells, Western blot (FIG. 9); stronger effect than on JNK, ERK1/2
Experimental: as §1, §2

c-Raf = experiment: Phosphorylation of c-Raf at Ser259 and Ser338, Western blot; conditions: LPS-stimulated macrophage cells, Western blot (FIG. 11)
Experimental: as §1
If c-Raf (RAF proto-oncogene serine/threonine-protein kinase) is phosphorylated at Ser^338, the c-Raf induces expression of iNOS. Thus, the present inventors checked a protein level of the c-Raf in the LPS-stimulated macrophage cells and a phosphorylated protein level at Ser^259 and Ser^338 of the c-Raf through a Western blot analysis performed in the same manner as Example 3 in order to confirm whether or not the veratric acid affected the protein level of the c-Raf.

IL-1β = IL-1β protein expression, Western blot; conditions: LPS-stimulated RAW264.7 cells, Western blot (FIG. 6)
IκBα = experiment: Phosphorylation of IκBα, Western blot; conditions: LPS-stimulated macrophage cells, Western blot (FIGS. 8A, 8B)
Experimental: as §1, §3

JNK = experiment: Phosphorylation of JNK, Western blot; conditions: LPS-stimulated macrophage cells, Western blot (FIG. 9)
Experimental: as §1, §2

IL-6 = IL-6 protein expression, Western blot; conditions: LPS-stimulated RAW264.7 cells, Western blot (FIG. 6)
NF-κB [4] = experiment: Intracellular distribution of NF-κB, immunofluorescent microscopy; conditions: 100 μM veratric acid 1 hour, LPS 12 hours, immunofluorescent microscopy (FIGS. 8C, 8D)
Source text: An NF-κB is a transcription factor and when the NF-κB is activated by phosphorylated IκBα, it is moved into a nucleus and bound to a promoter site such that target molecules can be transcribed. Thus, the present inventors performed a Western blot analysis and an immunofluorescent microscopy as follows in order to confirm whether or not the veratric acid affected protein levels of the NF-κB and the IκBα. That is, protein expression levels of the NF-κB and the IκBα in the LPS-stimulated macrophage cells were checked through the Western blot analysis performed in the same manner as Example 3, and in the immunofluorescent microscopy, after 100 μM veratric acid was treated for 1 hour, LPS was incubated for 12 hours, and 4,6-diamidino-2-phenylindole (DAPI) was treated at room temperature for 15 minutes, the cells were immobilized with 4% formaldehyde and then distribution of the NF-κB in the cells was checked visually.

[5] = system: macrophage RAW264.7 cells; experiment: Cytotoxicity of veratric acid, WST-1 cell viability; conditions: up to 200 μM, 3 h pretreatment then 100 ng/ml LPS 24 h
Experimental: Cell lines used to evaluate cytotoxicity of a veratric acid were macrophage RAW264.7, human embryonic kidney (HEK) 293, and human keratinocyte (HaCaT) cells. For a cytotoxicity experiment, the cell lines were first incubated in a culture solution of DMEM containing 10% fetal bovine serum (FBS) and 1% penicillin (100 U/ml)/streptomycin (100 U/ml) under a condition of 5% CO2 at a temperature of 37° C. Then, the incubated cells were seeded in a 96-well plate at 1×10^5 cells/well. Each of the cells was treated at different concentrations (0, 50, 100, 150 and 200 μM) of a veratric acid and incubated for 3 hours. After the incubation, the cells were stimulated with 100 ng/ml LPS contained in a culture medium for 24 hours. Thereafter, the culture solution was removed, and then, the cells were treated with a solution of WST-1® (Daeil Lab service, Korea) and further incubated for 3 hours. An optical density of the culture solution was measured at 460 nm by using an ELIZA analyzer to analyze cell viability.

IFN-γ = IFN-γ protein expression, Western blot; conditions: LPS-stimulated RAW264.7 cells, Western blot (FIG. 6)
TNF-α = TNF-α protein expression, Western blot; conditions: LPS-stimulated RAW264.7 cells, Western blot (FIG. 6)
STAT-1 = experiment: Phosphorylation of STAT-1, Western blot; conditions: LPS-stimulated macrophage cells, concentration dependent (FIG. 7)
Experimental: as §1
It is known that secreted IFN-γ promotes phosphorylation of STAT-1 and induces transcription of iNOS, and an activity of the iNOS causes production of nitric oxide and induces inflammation. Therefore, protein expression levels of STAT-1 and phosphorylated STAT-1 were checked through a Western blot analysis performed in the same manner as Example 3 in order to confirm an effect of the veratric acid, which reduced the protein level of the IFN-γ in Example 5, on phosphorylation of STAT-1.

GSK-3β = experiment: Phosphorylation of GSK-3β, Western blot; conditions: LPS-stimulated macrophage cells, concentration dependent (FIG. 10)
Experimental: as §1
A protein expression level of GSK-3β in the LPS-stimulated macrophage cells was checked through a Western blot analysis performed in the same manner as Example 3 in order to confirm whether or not the veratric acid affected phosphorylation of the GSK-3β as a superordinate signaling system that caused inflammatory reactions.

COc1ccc(C(=O)O)cc1OC [veratric acid, 3,4-Dimethoxybenzoic acid]
gene expression of COX-2 (cyclooxygenase-2 (COX-2); RT-PCR (FIG. 5)): did not affect
protein expression of COX-2 (cyclooxygenase-2 (COX-2); Western blot (FIG. 5)): did not affect
phosphorylation of the ERK1/2 (ERK1/2): inhibited
gene expression of iNOS ([1]; RT-PCR): decreased or inhibited strongly
protein expression of iNOS ([1]; Western blot): decreased or inhibited strongly
excessive production of nitric oxide [2]: inhibited
protein expression of the phosphorylated NF-κB (NF-κB [3]): remarkably reduced
phosphorylation of the p38 (p38): inhibited
phosphorylation at Ser259 of the c-Raf (c-Raf): did not affect
phosphorylation at Ser338 of the c-Raf (c-Raf): inhibited
protein expression level of IL-1β (IL-1β): reduced
phosphorylated IκBα (IκBα): reduced
phosphorylation of the JNK (JNK): inhibited
protein expression level of IL-6 (IL-6): did not affect
movement of the NF-κB into the nucleus (NF-κB [4]): inhibited
cytotoxicity (cell viability) [5]: did not show cytotoxicity
protein expression level of IFN-γ (IFN-γ): reduced
protein expression level of TNF-α (TNF-α): did not affect
phosphorylation of the STAT-1 (STAT-1): reduced
phosphorylation of the GSK-3β (GSK-3β): remarkably inhibited
